Each structure is given as a SMILES string.

For orientation: Ki means the dissociation constant of the complex between target and ligand, obtained from inhibition or displacement. Low values mean higher affinity, high ones lower affinity.

5-HT4e receptor, sequence (Q13639 1-378 isoform Q13639-5): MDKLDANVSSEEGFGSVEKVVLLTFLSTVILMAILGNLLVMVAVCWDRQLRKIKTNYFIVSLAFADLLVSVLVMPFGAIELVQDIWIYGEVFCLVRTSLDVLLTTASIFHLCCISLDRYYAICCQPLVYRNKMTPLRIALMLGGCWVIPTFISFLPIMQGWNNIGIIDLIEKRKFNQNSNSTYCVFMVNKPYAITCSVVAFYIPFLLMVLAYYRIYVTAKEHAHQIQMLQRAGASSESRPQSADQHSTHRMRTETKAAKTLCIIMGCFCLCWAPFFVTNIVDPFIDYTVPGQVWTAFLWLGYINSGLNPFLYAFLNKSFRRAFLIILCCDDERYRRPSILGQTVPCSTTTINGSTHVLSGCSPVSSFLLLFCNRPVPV

This assay concerns the target 5-HT4e receptor (Homo sapiens, UniProt Q13639). Kind of assay: 5-HT4e receptor binding affinity assay. The conditions noted are these: binding affinity to 5-HT4e receptors. On the procedure:
Compounds of the invention synthesized above and their binding affinity to 5-HT4e receptors was determined.
`CC(C)CN1CCC(NC(=O)c2c(O)c3ccsc3n(C(C)C)c2=O)CC1` [Example 6, 6,7-Dihydro-4-hydroxy-N-(1-isobutylpiperidin-4-yl)-7-isopropyl-6-oxothieno[2,3-b]pyridine-5-carboxamide] gave a Ki of 0.22 µM.

Regarding `CCCN1CCC(NC(=O)c2c(O)c3ccsc3n(CC)c2=O)CC1` [Example 9, 6,7-Dihydro-7-ethyl-4-hydroxy-6-oxo-N-(1-propylpiperidin-4-yl)thieno[2,3-b]pyridine-5-carboxamide], the affinity corresponds to a Ki of 0.031 µM. This Ki is about 7.1-fold lower than that of the compound before.

Compound `CCCCN1CCC(NC(=O)c2c(O)c3ccsc3n(C(C)C)c2=O)CC1` [Example 3, N-(1-Butylpiperidin-4-yl)-6,7-dihydro-4-hydroxy-7-isopropyl-6-oxothieno[2,3-b]pyridine-5-carboxamide] displayed a Ki of 0.047 µM.

With `CCCCCN1CCC(NC(=O)c2c(O)c3ccsc3n(C(C)C)c2=O)CC1` [Example 8, 6,7-Dihydro-4-hydroxy-7-isopropyl-6-oxo-N-(1-pentylpiperidin-4-yl)thieno[2,3-b]pyridine-5-carboxamide], the inhibition constant (Ki) came out at 0.047 µM.

`CC(C)n1c(=O)c(C(=O)NC2CCN(CCCO)CC2)c(O)c2ccsc21` [Example 4, 6,7-Dihydro-4-hydroxy-N-(1-(3-hydroxypropyl)piperidin-4-yl)-7-isopropyl-6-oxothieno[2,3-b]pyridine-5-carboxamide]: the inhibitory constant (Ki) was 0.031 µM.

With `CCn1c(=O)c(C(=O)NC2CCN(CCCO)CC2)c(O)c2ccsc21` [Example 10, 6,7-Dihydro-7-ethyl-4-hydroxy-N-(1-(3-hydroxypropyl)piperidin-4-yl)-6-oxothieno[2,3-b]pyridine-5-carboxamide], the inhibition constant (Ki) came to 0.1 µM.

The compound `CC(C)n1c(=O)c(C(=O)NC2CCN(CC3CC3)CC2)c(O)c2ccsc21` [Example 5, N-(1-(Cyclopropylmethyl)piperidin-4-yl)-6,7-dihydro-4-hydroxy-7-isopropyl-6-oxothieno[2,3-b]pyridine-5-carboxamide] displayed a Ki of 0.062 µM.

Regarding `CC(C)n1c(=O)c(C(=O)NC2CCN(CCc3ccccc3)CC2)c(O)c2ccsc21` [Example 7, 6,7-Dihydro-4-hydroxy-7-isopropyl-6-oxo-N-(1-phenethylpiperidin-4-yl)thieno[2,3-b]pyridine-5-carboxamide], the Ki was determined as 0.1 µM. This Ki is about 1.6-fold higher than that of the compound before.

For the compound `CCN1CCC(NC(=O)c2c(O)c3ccsc3n(C(C)C)c2=O)CC1` [Example 1, 6,7-Dihydro-N-(1-ethylpiperidin-4-yl)-4-hydroxy-7-isopropyl-6-oxothieno[2,3-b]pyridine-5-carboxamide], affinity was put at a Ki of 0.081 µM.

In turn, `CCCN1CCC(NC(=O)c2c(O)c3ccsc3n(C(C)C)c2=O)CC1` [Example 2, 6,7-Dihydro-4-hydroxy-7-isopropyl-6-oxo-N-(1-propylpiperidin-4-yl)thieno[2,3-b]pyridine-5-carboxamide] returned an inhibition constant Ki of 0.033 µM.
